According to patent publication US10844118B2, “Treatment of inflammatory skin disease” (CHILDREN'S MEDICAL CENTER CORPORATION, priority 2013, dated 2020):
“Also recorded” adds a separate entry of the source. Blank lines part the entries; values can stand above or below the compound they belong to.

Columns and labels:
CD1a-transgenic mice = assay: DNFB hapten sensitization and challenge in CD1a-transgenic mice; type: in vivo
Source text: Finally, we wanted to examine whether CD1a-transgenic mice are generally prone to increased inflammatory responses. To this end, we treated mice with the well-established hapten DNFB (dinitrofluorobenzene). FIG. 7A depicts the skin sensitization and challenge schedule used for DNFB and urushiol application. […] It is well known that haptens like DNFB induce a prominent IFN-γ response, as we observed in WT mice (FIG. 7D). […] By contrast, the classical delayed type hypersensitivity (DTH) response to DNFB was rather decreased in the presence of CD1a. This underlines the specific nature of CD1a function in urushiol-induced contact dermatitis and psoriasis.

CD1a [1] = biological target: T1, CD1a (Homo sapiens, UniProt P06126); assay: MC903-induced atopic dermatitis model in CD1a-transgenic mice; type: in vivo; parameters: expressed in transfected cells; host or cells: CD1a-transgenic mice (compared with wild-type B6 mice); conditions: MC903 daily on ears, CD1a-transgenic mice compared to WT B6 controls
Source text: Atopic dermatitis is an inflammatory skin disease characterized by itchy and relapsing eczematous skin lesions. It affects approximately 30% of children and 10% of adults, costing up to $3.8 billion annually in the United States. The cause of atopic dermatitis remains unclear, and there is no cure available. Recently, it has been reported that IL-22-producing CD4 T cells are associated with initiation and progression of atopic dermatitis. Therefore, it is worthwhile to test whether anti-CD1a therapy can be extended to atopic dermatitis. For this purpose, we set up a mouse model of atopic dermatitis applying MC903 (calcipotriol, Vitamin D analogue) daily on the ears of experimental mice, which triggers atopic dermatitis-like skin inflammation characterized by red, scaly, and eczematous lesions. […] Furthermore, anti-CD1a Ab injection suppressed ear swelling and granulocyte infiltration in CD1a-transgenic mice.
The inventors tested the contribution of CD1a presence in MC903-induced atopic dermatitis. The vitamin D3 analogue MC903 was used to induce AD-like symptoms in wild-type (WT-B6) mice, CD1a transgenic mice, and CD1a transgenic mice that were treated with an anti-CD1a Ab. For CD1a blocking, 200 μg of anti-CD1a Ab was intraperitoneally injected into CD1a-transgenic mice every other day (−1, +1, +3, +5, and +7 days before and after MC903 treatment).

CD1a [2] = biological target: T1, CD1a; assay: imiquimod (IMQ) psoriasis model in CD1a-transgenic mice; type: in vivo, mouse; parameters: expressed in transfected cells; host or cells: CD1a-transgenic mice (compared with wild-type B6 mice)
Source text: Therefore, we subsequently investigated whether CD1a also plays an important role in psoriasis. For this purpose, we used a well-established model applying the small molecule imiquimod (IMQ) to the skin of mice, which induces psoriasis-like pathology after 3-6 days of daily administration. Strikingly, CD1a-transgenic mice responded with extensive ear swelling when compared to WT controls (FIG. 5A).
In order to test whether anti-CD1a therapy is able to abrogate skin inflammation in psoriasis, we performed IMQ treatment of mice and administered anti-CD1a antibody in parallel as described above. […] Of note, anti-CD1a therapy blocked the infiltration of IL-17 producing CD4 T cells.

CD1a [3] = biological target: T1, CD1a; assay: OCTET Bio-Layer Interferometry CD1a-lipid ligand binding assay; conditions: recombinant CD1a coupled to a biosensor, incubated with lipid ligand
Source text: In order to develop a small molecule inhibitor against CD1a, a CD1a binding assay as a platform can be used to test potential inhibitors from a chemical compound library. For this purpose, we have already established a read-out using the OCTET machine (from FORTEBIO) to measure the molecular interaction between CD1a and lipid ligands with high sensitivity. […] However, the great advantage of the OCTET is its straightforward assay set-up, and that it is amenable to high throughput screening using a 384-well plate format. Accordingly, we use recombinant CD1a molecules coupled to a biosensor, prior to incubation with the known lipid ligand sulfatide. […] In a next step, use pools of small organic molecules derived from a chemical compound library are tested by adding them to the CD1a-sulfatide binding assay. Subsequently, one can measure whether a small molecule candidate is able to inhibit the interaction between CD1a and its ligand.

CD1a [4] = biological target: T1, CD1a; assay: plate-bound binding assay, purified urushiol and recombinant CD1a; conditions: plate coated with lipid, biotinylated CD1a, streptavidin-peroxidase; compared to positive control sulfatide
Source text: Central to our invention is the discovery that CD1a expressed on Langerhans cells is able to mediate skin inflammation through the induction of CD1a-restricted T cells. Accordingly, T cells stimulated by CD1a produce inflammatory cytokines such as interferon (IFN) gamma and IL-17 that facilitate the development of inflammatory skin disease (FIG. 1A). The CD1a-mediated mechanism holds true for diverse skin diseases, including poison ivy contact dermatitis as well as psoriasis. […] For this purpose, we performed a plate-bound binding assay, using purified urushiol and recombinant CD1a. After coating the microtiter plates with urushiol or the known CD1a ligand sulfatide as positive control, plates were washed and subsequently incubated with biotinylated CD1a. Following incubation with streptavidin-peroxidase and the respective chromogenic enzyme substrate, optical density was measured indicating binding efficiency. […] Thus, urushiol from poison ivy is a ligand for CD1a.

CD1a [5] = biological target: T1, CD1a; assay: urushiol-induced contact dermatitis (poison ivy) in CD1a-transgenic mice; type: in vivo, mouse; parameters: expressed in transfected cells; host or cells: CD1a-transgenic mice (compared with wild-type B6 mice)
Source text: Next, we wanted to explore the function of CD1a in the in vivo response to urushiol. However, CD1a is mainly expressed in humans, and absent in experimental mice. Therefore, in vivo studies investigating CD1a function were not possible in the past. Therefore, we used mice transgenic for human CD1a to overcome that obstacle. FIG. 2A depicts the experimental set-up to investigate the skin immune response to poison ivy. Accordingly, CD1a-transgenic mice compared to wild-type (WT) mice were sensitized with urushiol on the abdomen following the epicutaneous route. Five days later, mice were challenged on the ear skin, prior to harvesting of inflamed ears and draining lymph nodes 48 h after challenge. […] Subsequently, we isolated the inflammatory cells from the ears, using in vitro enzyme digestion of ear tissues, prior to staining for neutrophils and T lymphocyte subsets.
In parallel, we also determined the cytokine profile of the T cells infiltrating the inflamed skin. Accordingly, we performed intracellular cytokine staining for IFN-γ, IL-17, and IL-22, prior to analysis by flow cytometry. […] IL-17 is known to mediate the recruitment of neutrophils, and IL-22 acts on epithelial cells to trigger their hyperproliferation, both cardinal features of skin inflammation.
Based on our findings that CD1a promotes skin inflammation, we next aimed at developing a therapeutic strategy to target CD1a in order to abrogate skin disease. To this end, we used an experimental blocking antibody to CD1a for intraperitoneal injection of mice. The treatment schedule included five injections of 100 μg anti-CD1a starting one day prior to sensitization with urushiol and followed by injections every other day until challenge and tissue harvest. […] To control for the efficiency of antibody treatment, we stained ear cells for CD1a, the crucial surface marker of Langerhans cells. […] Moreover, we investigated the impact of anti-CD1a treatment on the abundance of IL-17-producing CD4 T cells (also called Th17 cells). […] Taken together, we provide the proof of principle that anti-CD1a therapy abrogates skin inflammation.

[6] = intracellular cytokine staining, flow cytometry

Compound: O=[N+]([O-])c1ccc(F)c([N+](=O)[O-])c1 [DNFB, 2,4,-dinitro-1-fluorobenzene]
T cell-derived IFN-γ (CD1a-transgenic mice; CD1a-transgenic animals, response biased towards IL-17): significantly reduced
abundance of inflammatory granulocytes, flow cytometry (CD1a-transgenic mice; CD1a-transgenic mice): strikingly reduced
ear swelling (inflammation) (CD1a-transgenic mice; CD1a-transgenic mice, in contrast to poison ivy challenge): reduction
IFN-γ response (CD1a-transgenic mice; WT mice): prominent

Compound: CC(C)Cn1cnc2c(N)nc3ccccc3c21 [imiquimod]
ear swelling (CD1a [2]; IMQ on skin, CD1a-transgenic mice compared to WT controls): extensive
Gr-1+CD11b+ neutrophils and αβ T cells in the skin, flow cytometry (CD1a [2]; IMQ, CD1a-transgenic mice): dramatic increase
cytokine profile of inflammatory T cells (CD1a [2]; IMQ, CD1a-transgenic mice): mainly consisted of CD4 T cells producing IL-17 and IL-22

Compound: urushiol
binding to CD1a (optical density) (CD1a [4]): specific binding; also recorded: interacts as a ligand
ear swelling (ear thickness) (CD1a [5]; 2 days after urushiol challenge, CD1a-transgenic mice compared to WT controls): drastically increased
CD4+αβ T cells in urushiol-challenged skin (CD1a [5]; CD1a-dependent fashion): expanded
frequency of Th17 cells (CD1a [5]; CD1a-transgenic mice challenged with urushiol): drastically increased
IFN-γ response of T cells infiltrating the inflamed skin (CD1a [5]; [6]): failed to induce
cytokine profile of T cells responding to challenge (CD1a [5]; [6]): mainly produced the cytokines IL-17 and IL-22
neutrophil infiltration (Gr-1, CD11b), flow cytometry (CD1a [5]; urushiol-challenged ears, CD1a-transgenic mice vs WT): striking increase

The remaining lines, values ahead:

Gr1+CD11b+ granulocyte infiltration (CD1a [1]): significantly amplified
ear swelling (CD1a [1]): significantly amplified
Compound: C=C1/C(=C\C=C2/CCC[C@]3(C)[C@@H]([C@H](C)/C=C/[C@@H](O)C4CC4)CC[C@@H]23)C[C@@H](O)C[C@@H]1O [MC903, calcipotriol]

binding curves, molecular interaction with CD1a (CD1a [3]): sensitive and specific binding curves
Compound: sulfatide
